Data on 4 molecules can be found in article PMC6983054, “Toxicity and Antitumor Activity of a Thiophene–Acridine Hybrid” (Molecules, 2019).

The structures appear in SMILES notation. Where only a bound is given, the exact number is not on record here.

The subject of test [1] is HCT-116 cells (human colon carcinoma cell line). The experiment in a line: MTT cytotoxicity assay, HCT-116. Type of test: cell-based. The settings on record: HCT-116, MTT, 72 h, read-out: IC50. The source says: Colorectal carcinoma cells (HCT-116), chronic myelogenous leukemia (K562), and acute promyelocytic leukemia (HL-60) were generously provided by Dr. Manoel de Moraes (Federal University of Ceará, Fortaleza, Brazil) and cultured in Roswell Park Memorial Institute 1640 (RPMI 1640; Sigma Aldrich, St. Louis, MO, USA) medium supplemented with 10% fetal bovine serum (GIBCO, Grand Island, NY, USA) and 1% penicillin–streptomycin (Sigma Aldrich, St. Louis, MO, USA). Human keratinocyte cells (HaCaT; provided by Dr. Jaciana Aguiar from Federal University of Pernambuco, Recife, Pernambuco, Brazil), cervical cancer cells (HeLa; purchased from the cell bank of Rio de Janeiro, Rio de Janeiro, Brazil), and breast cancer cells (MCF-7; provided by Dr. João Ernesto de Carvalho from University of Campinas, Campinas, São Paulo, Brazil) were grown and maintained in Dulbecco’s Modified Eagle’s Medium (DMEM; Sigma Aldrich, St. Louis, MO, USA) supplemented with 10% fetal bovine serum (GIBCO, Grand Island, NY, USA) and 1% penicillin–streptomycin (Sigma Aldrich, St. Louis, MO, USA). All cell types were maintained in 5% CO2 at 37 °C with humidity.
MTT (3-(4,5-dimethylthiazol-2-yl)-2,5-diphenyltetrazolium bromide) reduction assay was used to evaluate the cytotoxicity of ACS03 and its precursors (2-amino-5,6,7,8-tetrahydro-4H-cyclohepta[b]thiophene-3-carbonitrile and 6,9-dichloro-2-methoxyacridine) against tumor and non-tumor cell lines and PBMC. For the MTT assay, cell lines (3 × 10^5 cells/mL) and PBMC (1 × 10^6 cells/mL) were seeded on 96-well plates and cultured for 24 h. ACS03 (3.125–200 µM) was added to the cell cultures and incubated for 72 h. After incubation, 110 µL of the supernatant was removed and 10 μL of the MTT reagent (Sigma Aldrich, St. Louis, MO, USA) was added to each well, and the plates were then incubated at 37 °C. Following 3 h incubation, 100 μL of sodium dodecyl sulfate (SDS) was added to dissolve the formazan crystals produced and left overnight to incubate. The amount of formazan is proportional to the number of viable cells present. The optical density was measured using a microplate spectrophotometer reader (Microplate reader BioTek Instruments, Sinergy HT, Winooski, VT, USA) at λ = 570 nm and used to calculate the IC50 (half maximal inhibitory concentration).

In test [2] the test system is nitrite (nitric oxide). The experiment in a line: Nitrite levels in ascitic fluid, Ehrlich ascites carcinoma model (Griess). In kind it is in vivo, mice (Mus musculus). The settings on record: peritoneal fluid, 25 mg/kg; control 36.09 ± 0.72 µM. As for the experimental part:
The nitrite concentration in the ascitic fluid was measured using Griess reagent. For this, the peritoneal fluid of control and treated animals (12.5 mg/kg ACS03 and 25 mg/kg 5-FU) was used. The optical density was measured using a microplate spectrophotometer reader (Microplate reader BioTek Instruments, Sinergy HT, Winooski, VT, USA) at λ = 560 nm. Concentrations of nitrite were calculated from a standard curve previously established with known molar concentrations of sodium nitrite. The tests were done in quadruplicate and the values expressed in µM [51].

Turning to `N#Cc1c(N)sc2c1CCCCC2` [2-amino-thiophene, 2-amino-5,6,7,8-tetrahydro-4H-cyclohepta[b]thiophene-3-carbonitrile], the IC50 in test [1] is greater than 1000 µM. The molecule `O=c1[nH]cc(F)c(=O)[nH]1` [5-FU, 5-fluorouracil, reference compound] showed a nitrite concentration in test [2] of 16.3 ± 2.91 µM. As to `COc1ccc2nc3cc(Cl)ccc3c(Cl)c2c1` [6,9-diclhoro-2-methoxi-acridine, 6,9-dichloro-2-methoxyacridine], in test [1], the IC50 was determined as 202.3 ± 1.19 µM. For the molecule `COc1cccc2c1C(=O)c1c(O)c3c(c(O)c1C2=O)C[C@@](O)(C(=O)CO)C[C@@H]3O[C@H]1C[C@H](N)[C@H](O)[C@H](C)O1` [Doxorubicin], in test [1], the IC50 is 2.59 µM.
